“Also recorded” adds a separate entry of the source.
Columns and labels:
[1] = Liposome leakage assay (carboxyfluorescein release); settings: for CF release from liposomes: 10 mM Tris-buffer; for share of the maximal CF release: within 5-10 minutes, 1 μM of peptides
Source text: Liposome preparation and leakage assay. The liposomes investigated were either zwitterionic (DOPC/cholesterol 60/40 mol/mol or DOPC without cholesterol) or anionic (DOPE/DOPG 75/25 mol/mol). DOPG (1,2-Dioleoyl-sn-Glycero-3-Phosphoglycerol, monosodium salt), DOPC (1,2-dioleoyl-sn-Glycero-3-phosphocholine), and DOPE (1,2-dioleoyl-sn-Glycero-3-phosphoetanolamine) were all from Avanti Polar Lipids (Alabaster, USA) and of >99% purity, while cholesterol (>99% purity), was from Sigma-Aldrich (St. Louis, USA). Due to the long, symmetric and unsaturated acyl chains of these phospholipids, several methodological advantages are reached. In particular, membrane cohesion is good, which facilitates very stable, unilamellar, and largely defect-free liposomes (observed from cryo-TEM) and well defined supported lipid bilayers (observed by ellipsometry and AFM), allowing detailed values on leakage and adsorption density to be obtained. The lipid mixtures were dissolved in chloroform, after which solvent was removed by evaporation under vacuum overnight. Subsequently, 10 mM Tris buffer, pH 7.4, was added together with 0.1 M carboxyfluorescein (CF) (Sigma, St. Louis, USA). After hydration, the lipid mixture was subjected to eight freeze-thaw cycles consisting of freezing in liquid nitrogen and heating to 60° C. Unilamellar liposomes of about Ø140 nm were generated by multiple extrusions through polycarbonate filters (pore size 100 nm) mounted in a LipoFast miniextruder (Avestin, Ottawa, Canada) at 22° C. Untrapped CF was removed by two subsequent gel filtrations (Sephadex G-50, GE Healthcare, Uppsala, Sweden) at 22° C., with Tris buffer as eluent. CF release from the liposomes was determined by monitoring the emitted fluorescence at 520 nm from a liposome dispersion (10 mM lipid in 10 mM Tris, pH 7.4). An absolute leakage scale was obtained by disrupting the liposomes at the end of each experiment through addition of 0.8 mM Triton X-100 (Sigma-Aldrich, St. Louis, USA). A SPEX-fluorolog 1650 0.22-m double spectrometer (SPEX Industries, Edison, USA) was used for the liposome leakage assay in Tris buffer in the absence and presence of liposomes under conditions described above. Measurements were performed in triplicate at 37° C.
Liposome preparation and leakage assay—The liposomes investigated were anionic (DOPE/DOPG 75125 mol/mol). DOPG (1,2-Dioleoyl-sn-Glycero-3-Phosphoglycerol, monosodium salt) and DOPE (1,2-dioleoyl-sn-Glycero-3-phoshoetanolamine) were both from Avanti Polar Lipids (Alabaster, USA) and of >99% purity. […] CF release from the liposomes was determined by monitoring the emitted fluorescence at 520 nm from a liposome dispersion (10 µM lipid in 10 mM Tris, pH 7.4). […]

E. coli = experiment: FACS binding of TAMRA labeled peptide to E. coli; design: species or system Escherichia coli; settings: 3 μM TAMRA labeled peptide in human plasma
Procedure: Flow cytometry analysis—Fifty μl of bacteria (1-2×10^6 cfu) were incubated with 450 μl of human plasma either alone or supplemented with GGL27 (at 3 μM). Samples were incubated for 30 min or 1 h at 37° C., divided into two equal parts, centrifuged, washed with PBS, and resuspended in 100 μl PBS with rabbit polyclonal antibodies against either LGE27 (25), a C-terminal epitope of human C3a, or rabbit polyclonal antibodies against C1q (both at 1:100). The mixtures were subsequently incubated for 1 h at room temperature. Bacteria were pelleted and washed twice with PBS, incubated in 100 μl PBS with goat anti rabbit IgG FITC-labeled antibodies (1:500, Sigma) for 30 min at room temperature and washed twice with PBS. In another experiment bacteria were incubated for 1 h in citrate plasma together with 3 μM TAMRA-labeled GGL27 peptide, then pelleted and washed twice with PBS. Flow cytometry analysis (Becton-Dickinson, Franklin Lakes, N.J.) was performed using a FACS-Calibur flow cytometry system equipped with a 15 mW argon laser turned a 488 nm. The bacterial population was selected by gating with appropriate settings of forward scatter (FSC) and sideward scatter (SSC).

RAW 264.7 macrophages = experiment: NO production in RAW 264.7 macrophages stimulated with LPS or other microbial products (Griess reaction); format: cell-based, mouse
Procedure: Effects of various microbial products on macrophages in vitro and anti-inflammatory effects by various peptides of HCII and TFPI. 3.5×10^5 cells were seeded in 96-well tissue culture plates (Nunc, 167008) in phenol red-free DMEM (Gibco) supplemented with 10% FBS and antibiotics. Following 6 hours of incubation to permit adherence, cells were stimulated with 10 ng/mL E. coli (0111:B4) LPS (Sigma), lipoteichoic acid, peptioglycan, or zymosan, with and without peptides at the indicated doses (se figure legends and figures). The levels of NO in culture supernatants were determined after 24 hours from stimulation using the Griess reaction. Briefly, nitrite, a stable product of NO degradation, was measured by mixing 50 μl of culture supernatants with the same volume of Griess reagent (Sigma, G4410) and reading absorbance at 550 nm after 15 min. Phenol-red free DMEM with FBS and antibiotics were used as a blank. A standard curve was prepared using 0-80 μM sodium nitrite solutions in ddH20.
LPS effects on macrophages in vitro—[…] cells were seeded in 96-well tissue culture plates (Nunc, 167008) in phenol red-free DMEM (Gibco) supplemented with 10% FBS containing 1% Anti-Anti (Invitrogen). Following 20 hours of incubation to permit adherence, cells were washed and stimulated with 10 ng/ml E. coli (0111:B4) or P. aeruginosa LPS (Sigma), with and without the peptides GGL27, GGL27(S), and DSE25 of various doses. The levels of NO in culture supernatants were determined after 24 hours from stimulation using the Griess reaction (27). Briefly, nitrite, a stable product of NO degradation, was measured by mixing 50 μl of culture supernatants with the same volume of Griess reagent (Sigma, G4410) and reading absorbance at 550 nm after 15 min. Phenol-red free DMEM with FBS and antibiotics were used as a blank. A standard curve was prepared using 0-80 μM sodium nitrite solutions in ddH20.

Row | Sequence | CF release from liposomes [1] | share of the maximal CF release [1] [%] | binding to bacteria (E. coli) | anti-endotoxic effects in vitro (RAW 264.7 macrophages) | LPS-mediated NO release (RAW 264.7 macrophages; LPS from E. coli or P. aeruginosa, peptide at indicated concentrations (FIG. 41C))
1 | GGLIKTKRKRKKQRVKIAYEEIFVKNM [GGL27, C-terminal peptide of TFPI, plasmin-generated] | caused CF release | ~80 | avidly bound | anti-endotoxic effects | inhibits NO production; also recorded: inhibited LPS-mediated NO-release
2 | LIKTKRKRKKQRVKIAY [LIK17] | caused CF release | ~80 | – | – | –

Reference: US20120189673A1, “POLYPEPTIDES AND USES THEREOF” (priority 2009, published 2012)
